“Also recorded” adds a separate entry of the source.
Tests used:
[1] = tested on: activated bone marrow macrophages; test: Anti-inflammatory response, pro-inflammatory marker gene expression; type: cell-based; conditions: for IL-1B gene expression / IL-6 gene expression / Nos2 gene expression / TNF-α gene expression: 20 μM
Description: FIG. 5 Anti-inflammatory efficacy of Dicannabidiol (diCBD) adipate and AM1241 towards inflamed bone marrow macrophages.
AM1241 was used as comparison due to its commercial availability.

F-11 (neuronal) cells = test: Dose dependent cytotoxicity towards F-11 neuronal cells; type: cell-based; conditions: F11 cells, 24 hour incubation; for cytotoxicity: up to 20 μM
Experimental: FIG. 4 Dose dependent cytotoxicity of Dicannabidiol (diCBD) adipate and AM1241 towards F-11 (neuronal) cells after 24 hour incubation.

[2] = Degradation study: thermal and UV light; type: physicochemical
Experimental: A degradation study was conducted in two parts: thermal degradation and UV light degradation. In the thermal degradation study, the Dicannabidiol adipate was heated to 175° C. in aerobic and anaerobic conditions and the changes were monitored by 1H NMR spectroscopy. In the UV light exposure study, a sample of Dicannabidiol adipate was kept under environmental conditions and UV light for several days and was constantly monitored by 1H NMR spectroscopy. From the results of the two experiments, it was concluded that the Dicannabidiol adipate is stable against the degradation caused from heat and UV exposure. […] This limits its misuse and abuse. Further, this indicates there will be no need to refrigerate the CBD-adipate dimer drug, and less issues, compared to CBD, with its shipping/handling.

[3] = Solubility study at different pHs; type: physicochemical; conditions: 1 mg in 1 mL of water and ethanol, pH 1 to pH 12
Experimental: A solubility study was conducted on the Dicannabidiol adipate at different pHs. Twelve vials were prepared by placing 1 mg of the dimer in 1 mL of water and ethanol of different pH, from pH 1 to pH 12. […] The hypothesis for the dimer being soluble in basic water is due to the bonding of the base with the phenolic oxygen of the dimer, thus producing the salt and easily solubilizing in water. […] Adipic acid is widely used in food and medicinal applications and is considered compatible and safe in the human body.

rat osteoarthritis model = test: Rat osteoarthritis model (monoiodo acetate), mechanical allodynia; type: in vivo
Experimental: Briefly, baseline behavioral measurements were quantified prior to induction of osteoarthritis. Monoiodo acetate was used to induce osteoarthritis via intra-articular injection into the rear right knee joint followed 24 hours later by a single intra-articular injection of the designated treatment group (FIG. 9).

With `CN1CCCCC1Cn1cc(C(=O)c2cc([N+](=O)[O-])ccc2I)c2ccccc21` (centres unmarked) [AM1241, reference compound] the IL-1B gene expression [1] was “significantly downregulate”, the IL-6 gene expression [1] was “significantly downregulate” and the Nos2 gene expression [1] was “significantly downregulate”. The TNF-α gene expression [1] was “Neither of these drugs showed any significant effect” and the cytotoxicity (F-11 (neuronal) cells) was “significantly increased cytotoxicity”.
For `C=C(C)[C@@H]1CCC(C)=C[C@H]1c1c(O)cc(CCCCC)cc1OC(=O)CCCCC(=O)Oc1cc(CCCCC)cc(O)c1[C@@H]1C=C(C)CC[C@H]1C(=C)C` [Dicannabidiol adipate], the “stability against degradation caused from UV exposure” value ([2]; environmental conditions and UV light for several days, monitored by 1H NMR) was “stable”, the “stability against degradation caused from heat” value ([2]; heated to 175° C., aerobic and anaerobic, monitored by 1H NMR) was “stable” and the “degradation into psychoactive molecules such as THC” value ([2]; thermal) was “does not degrade”. The “solubility in acidic conditions” value ([3]; acidic) was “not soluble”, the “solubility in basic pH” value ([3]; basic) was “solubilizes” and the “anti-inflammatory effect in vitro” value [1] was “potent anti-inflammatory effect”. For the same molecule, the IL-1B gene expression [1] was “significantly downregulate; also recorded: significant reduction”, the IL-6 gene expression [1] was “significantly downregulate; also recorded: significant reduction” and the Nos2 gene expression [1] was “significantly downregulate; also recorded: significant reduction”. The TNF-α gene expression [1] was “Neither of these drugs showed any significant effect”, the cell viability (F-11 (neuronal) cells; 20 μM) was “above 80%” and the cytotoxicity (F-11 (neuronal) cells) was “minimal cytotoxicity; also recorded: no cytotoxicity; also recorded: minimal toxicity”. The cytotoxicity (F-11 (neuronal) cells; listed as CBD-adipate dimer) was “minimal dose dependent cell toxicity”.
For `CCCN1CCCC[C@H]1C(=O)Nc1c(C)cccc1C` [Ropivacaine], the “pain level after the anesthetic action, versus initial pain” value (rat osteoarthritis model; after drug is no longer active) was “more pain” and the pain free duration (rat osteoarthritis model; rat model of osteoarthritis) was 2 days.

From patent US20250325567A1, “COADMINISTRATION OF POLYC[…] AMINE/AMIDE A[…] ENHANCE EFFICACY AGAINST PAIN” (University of Connecticut, priority 2024, published 2025)
